Measured values as given in patent publication US11919918B2, “P2X3 andor P2X2/3 receptor antagonist, pharmaceutical composition comprising same, and use thereof” (BEIJING TIDE PHARMACEUTICAL CO., LTD., priority 2017, dated 2024).

What was measured:
human P2X3 receptor = human P2X3 receptor (Homo sapiens (Human), UniProt P56373); assay: Inhibitory activity on human P2X3 receptor (calcium 6 dye FLIPR assay, agonist α,β-MeATP); type: cell-based; settings: HEK293-P2X3 stably expressing cell line, FLIPR Tetra
human P2X3 receptor, sequence (P56373 whole entry): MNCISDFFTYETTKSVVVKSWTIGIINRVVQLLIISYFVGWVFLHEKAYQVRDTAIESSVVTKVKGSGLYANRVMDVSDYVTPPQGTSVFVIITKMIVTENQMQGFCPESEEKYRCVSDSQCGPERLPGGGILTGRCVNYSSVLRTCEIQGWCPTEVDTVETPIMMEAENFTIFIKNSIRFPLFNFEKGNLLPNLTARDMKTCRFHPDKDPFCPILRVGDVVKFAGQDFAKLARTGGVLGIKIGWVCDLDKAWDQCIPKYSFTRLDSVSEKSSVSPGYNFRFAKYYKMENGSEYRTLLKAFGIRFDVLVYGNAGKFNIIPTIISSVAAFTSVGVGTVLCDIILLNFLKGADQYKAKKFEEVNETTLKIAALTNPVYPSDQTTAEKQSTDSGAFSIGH
Procedure: (§1) Biological Assay: Determination of the Inhibitory Activity of the Compounds on Human P2X3 and P2X2/3 Receptors
(§2) Cells were seeded into a poly-D-lysine-coated 384-well cell culture plate (Corning) at a density of 11,000 cells/well/25 μL of cell inoculation medium, and were cultured in a cell incubator overnight. On the day of the test, the calcium 6 dye was diluted to a 2× concentration with a assay buffer, 25 μL of the 2× calcium 6 dye was added to the 384-well cell culture plate, which was incubated at 37° C. for 2 hours, and then placed at room temperature for further use. The test compound and the agonist, α,β-MeATP were diluted to a 7× concentration with the assay buffer, 10 μL of the 7× test compound was added to the 384-well cell culture plate, which was incubated at room temperature for 15 minutes, and 10 μL of the 7× α,β-MeATP was transferred into the 384-well cell culture plate. The data were measured and analyzed using FLIPR Tetra, and the half inhibitory concentration (IC50) of the test compound on P2X3 and P2X2/3 receptors was calculated with the GraphPad Prism four-parameter equation.
(§3) Cell lines: human embryonic kidney cells HEK293-P2X3 and HEK293-P2X2/3 stably expressing cell lines;
(§4) Complete cell culture medium: DMEM High Glucose (Life Technology), which contained 10% fetal bovine serum, 4 mM GlutaMAX, 1% penicillin-streptomycin, and 350 μg/mL G418;
(§5) Cell inoculation medium: DMEM High Glucose (Life Technology), which contained 2% fetal bovine serum, and 4 mM GlutaMAX;
(§6) Cell culture conditions: 37° C., 5% CO2;
(§7) Assay buffer: HBSS (containing calcium and magnesium ions), which contained 20 mM HEPES;
(§8) Detection equipment: FLIPR Tetra (Molecular Devices);

human P2X2/3 receptor = human P2X2/3 receptor (Homo sapiens (Human), UniProt P56373+Q9UBL9); assay: Inhibitory activity on human P2X2/3 receptor (calcium 6 dye FLIPR assay, agonist α,β-MeATP); type: cell-based; settings: HEK293-P2X2/3 stably expressing cell line, FLIPR Tetra
human P2X2/3 receptor, sequence (Q9UBL9 whole entry): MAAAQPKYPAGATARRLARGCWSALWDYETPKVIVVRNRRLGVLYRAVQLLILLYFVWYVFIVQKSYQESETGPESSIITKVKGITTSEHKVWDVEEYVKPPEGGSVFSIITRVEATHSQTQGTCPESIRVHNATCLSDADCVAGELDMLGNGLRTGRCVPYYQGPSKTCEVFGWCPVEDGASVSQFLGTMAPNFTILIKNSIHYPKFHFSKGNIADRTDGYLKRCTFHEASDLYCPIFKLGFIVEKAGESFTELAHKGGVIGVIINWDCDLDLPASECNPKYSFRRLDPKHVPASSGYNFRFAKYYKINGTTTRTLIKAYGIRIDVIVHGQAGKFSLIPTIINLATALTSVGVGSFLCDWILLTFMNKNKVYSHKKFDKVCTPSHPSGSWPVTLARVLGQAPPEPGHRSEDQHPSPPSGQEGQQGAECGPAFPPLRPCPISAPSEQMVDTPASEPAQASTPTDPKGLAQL
human P2X2/3 receptor, sequence (P56373 whole entry): as the sequence (P56373 whole entry) above
Procedure: as §1, §2, §3, §4, §5, §6, §7, §8

| SMILES | IC50 (human P2X3 receptor) [nM] | IC50 (human P2X2/3 receptor) [nM] |
| --- | --- | --- |
| CC[C@@H](CO)Nc1nc(N)ncc1Oc1cc(Br)ncc1C(C)C [Compound C209, (S)-2-((2-amino-5-((2-bromo-5-isopropylpyridin-4-yl)oxy)pyrimidin-4-yl)amino)but-1-ol] | 144 | 209 |
| CC(C)c1cnc(Br)cc1Oc1cnc(N)nc1NCCN1CCCC1 [Compound C210, 5-((2-bromo-5-isopropylpyridin-4-yl)oxy)-N^4-(2-(pyrrolidin-1-yl)ethyl) pyrimidine-2,4-diamine] | 269 | 399 |
| C#Cc1cc(Oc2cnc(N)nc2NC)c(C(C)C)cn1 [Compound C213, 5-((2-ethynyl-5-isopropylpyridin-4-yl)oxy)-N^4-methylpyrimidine-2,4-diamine] | 112 | 295 |
| CC(C)c1cnc(Cl)cc1Oc1cnc(NC(CO)CO)nc1N [Compound C218, 2-((4-amino-5-((2-chloro-5-isopropyl-pyridin-4-yl)oxy)pyrimidin-2-yl)amino) propane-1,3-diol] | 186 | 383 |
| CC(C)c1cnc(Br)cc1Oc1cnc(NCCO)nc1NCCO [Compound C226, 2,2′-((5-((2-bromo-5-isopropylpyridin-4-yl)oxy)pyrimidin-2,4-diyl)bis(azanediyl))diethanol] | 115 | 155 |
| C#Cc1cc(Oc2cnc(NC(CO)CO)nc2N)c(C(C)C)cn1 [Compound C228, 2-((4-amino-5-((2-ethynyl-5-isopropyl-pyrdin-4-yl)oxy)pyrimidin-2-yl)amino) propane-1,3-diol] | 119 | 125 |
| CC(C)c1cnc(Br)cc1Oc1cnc(NCC(O)CO)nc1N (centres unmarked) [Compound C235, 3-((4-amino-5-((2-bromo-5-isopropyl-pyridin-4-yl)oxy)pyrimidin-2-yl)amino) propane-1,2-diol] | 90 | 145 |
| CNc1ncc(Oc2cc(Br)ncc2C(C)C)c(N)n1 [Compound C237, 5-((2-bromo-5-isopropylpyridin-4-yl)oxy)-N^2-methylpyrimidine-2,4-diamine] | 363 | 781 |
| CC(C)c1cnc(Br)cc1Oc1cnc(NC2CC2)nc1N [Compound C238, 5-((2-bromo-5-isopropylpyridin-4-yl)oxy)-N^2-cyclopropyl-pyrimidine-2,4-diamine] | 104 | 206 |
| CC(C)Nc1ncc(Oc2cc(Br)ncc2C(C)C)c(N)n1 [Compound C239, 5-((2-bromo-5-isopropylpyridin-4-yl)oxy)-N^2-isopropyl-pyrimidine-2,4-diamine] | 107 | 131 |
| CC(C)c1ncc(Cl)cc1Oc1cnc(N)nc1N [Reference Compound C10, 5-((5-chloro-2-isopropylpyridin-3-yl)oxy)pyrimidine-2,4-diamine, reference compound] | 2510 | 1820 |

Further lines, results first:

| IC50 (human P2X3 receptor) [nM] | IC50 (human P2X2/3 receptor) [nM] | SMILES |
| --- | --- | --- |
| 75.3 | 106 | C=C(C)c1cnc(SC)cc1Oc1cnc(N)nc1N [Compound C208, 5-((2-(methylthio)-5-(prop-1-en-2-yl)pyridin-4-yl)oxy)pyrimidine-2,4-diamine] |
| 64 | 121 | C#Cc1cc(Oc2cnc(N)nc2NCCO)c(C(C)C)cn1 [Compound C211, 2-((2-amino-5-((2-ethynyl-5-isopropylpyridin-4-yl)oxy)pyrimidin-4-yl)amino)ethanol] |
| 81 | 123 | C#Cc1cc(Oc2cnc(N)nc2NC(C)C)c(C(C)C)cn1 [Compound C212, 5-((2-ethynyl-5-isopropylpyridin-4-yl)oxy)-N^4-isopropylpyrimidine-2,4-diamine] |
| 44 | 72 | C=C(C)c1cnc(NCC)cc1Oc1cnc(N)nc1N [Compound C214, 5-((2-(ethylamino)-5-(prop-1-en-2-yl)pyridin-4-yl)oxy)pyrimidine-2,4-diamine] |
| 88.2 | 194 | C#Cc1cc(Oc2cnc(N)nc2N)c(C(=C)C)cn1 [Compound C215, 5-((2-ethynyl-5-(prop-1-en-2-yl)pyridin-4-yl)oxy) pyrimidine-2,4-diamine] |
| 62 | 65 | C#Cc1cc(Oc2cnc(N)nc2NCC(O)CO)c(C(C)C)cn1 (centres unmarked) [Compound C216, 3-((2-amino-5-((2-ethynyl-5-isopropylpyridin-4-yl)oxy)pyrimidin-4-yl)amino)propane-1,2-diol] |
| 48 | 40 | CC(C)c1cnc(Br)cc1Oc1cnc(N)nc1NNC(=O)OC(C)(C)C [Compound C222, tert-butyl 2-(2-amino-5-((2-bromo-5-isopropylpyridin-4-yl)oxy)pyrimidin-4-yl)hydrazine-1-carboxylate] |
| 65 | 113 | C#Cc1cc(Oc2cnc(NCC(O)CO)nc2N)c(C(C)C)cn1 (centres unmarked) [Compound C229, 3-((4-amino-5-((2-ethynyl-5-isopropyl-pyridin-4-yl)oxy)pyrimidin-2-yl)amino) propane-l,2-diol] |
| 60 | 106 | C#Cc1cc(Oc2cnc(NCCO)nc2N)c(C(C)C)cn1 [Compound C230, 2-((4-amino-5-((2-ethynyl-5-isopropyl-pyridin-4-yl)oxy)pyrimidin-2-yl)amino) ethanol] |
| 72 | 125 | C#Cc1cc(Oc2cnc(NC(C)C)nc2N)c(C(C)C)cn1 [Compound C233, 5-((2-ethynyl-5-isopropyl-pyrdin-4-yl)oxy)-N^2-isopropyl-pyrmidine-2,4-diamine] |
| 88 | 134 | CC(C)c1cnc(Br)cc1Oc1cnc(NCCO)nc1N [Compound C236, 2-((4-amino-5-((2-bromo-5-isopropyl-pyridin-4-yl)oxy)pyrimidin-2-yl)amino)ethanol] |
